Measured values reported in patent US20250170114A1, “METHODS OF TREATMENT USING T-TYPE CALCIUM CHANNEL MODULATORS” (Praxis Precision Medicines, Inc., priority 2022, published 2025).

How the values were obtained:
[1] = tested on: upper limb tremor in participants with ET; assay: Phase 2 trial in essential tremor (Part A, Part B OLT, Part B RWD): TETRAS performance subscale, ADL and mADL scores; format: in vivo, human; parameters: key to TETRAS ADL Randomization Baseline Mean: TETRAS ADL: 12 items each rated 0 to 4
Source text: In some embodiments, the compound of Formula (I) or a pharmaceutically acceptable salt thereof (e.g., the HCl salt), when administered in combination with at least one of propranolol, primidone, topiramate, or a pharmaceutically acceptable salt thereof can reduce tremor severity by at least about 20% when measured by The Essential Tremor Rating Assessment Scale (TETRAS). The term “TETRAS” as used herein refers to a scale developed to quantify severity of ET and its impact on daily activities. It has an activities of daily living (ADL) section and a performance section. The ADL section has 12 items rated between 0 to 4, and the performance section has 9 items rated between 0 to 4. See, e.g., Elble, R. R., The Essential Tremor Rating Assessment Scale, J. Neurology Neuromed. 2016, 1(4):34-38. This multi-center clinical trial assessed the efficacy, safety, tolerability, and PK of the HCl salt compound of Formula (I) in participants aged 18 years of age or older who have had signs and symptoms consistent with ET for at least 3 years, with an onset before age 65. The clinical trial was conducted in 2 parts (Part A and Part B). Both parts consisted of 3 periods: Screening/Baseline, Intervention, and Safety Follow-up Periods. Part A of the clinical trial was open-label and assessed the safety and tolerability of the study drug, as well as the overall magnitude and pattern of change in ET severity. Daily dose levels of the HCl salt compound of Formula (I) were titrated from 20 mg (Day 1 to Day 7) to 40 mg (Days 8 to 14). Part B of the clinical trial consisted of both an open-label titration phase and a randomized, double-blind, placebo-controlled withdrawal phase. Part B assessed the safety and tolerability of the study drug, as well as the overall magnitude and pattern of change in ET severity and the duration of that effect. During the open-label titration phase, the daily dose levels of the HCl salt compound of Formula (I) were titrated from 20 mg (Days 1 to 3) to 40 mg (Days 4 to 7) to 60 mg (Days 8 to 14) to 80 mg (Days 15 to 21) to 100 mg (Days 22 to 28) to 120 mg (Days 29 to 42) or the highest tolerated dose. In the randomized, double-blind, placebo-controlled withdrawal phase, participants were either maintained on their final open-label dose or switched to placebo for an additional 14 days (Days 43 to 56). Part A. On Day 1, participants received a 20 mg dose of study drug, administered in the morning. Participants remained in a clinical setting under medical observation for approximately 6 hours. TETRAS Performance assessments were performed before dosing and 6 hours post-dose. After the first dose, participants continued QAM dosing at home after breakfast through Day 7. Participants returned to the clinic on Day 7 for efficacy testing at the 20 mg dose level. On Day 8, the dose increased to 40 mg QAM after breakfast through Day 14. Participants returned to the clinic on Day 14 for efficacy testing at the 40 mg dose level. Participants who agreed to optional additional PK sampling remained overnight in the clinic on Day 1, Day 7, and Day 14. Key safety measures included clinical laboratory evaluations, 12-lead ECG, C-SSRS, and vital signs. Key efficacy assessments included the TETRAS Performance subscale, TETRAS Upper Limb using accelerometry, CGI, and PGI-C. Blood samples were obtained for the determination of study drug plasma concentrations using a validated bioanalytical method and may also be used for method development and/or metabolite characterization. On Day 1, participants received a 20 mg dose of study drug on an empty stomach (at least 1 hour before breakfast). Participants remained in a clinical setting under medical observation for approximately 6 hours. TETRAS Performance assessments were performed before dosing and 6 hours (±2) post-dose. For dosing on Day 2 through Day 41, participants were instructed to dose QAM at least 1 hour before breakfast at home. Participants continued taking study drug 20 mg QAM at home through Day 3. […]

[2] = Plasma and brain tissue concentrations in rats after harmaline testing; format: in vivo, rat; conditions: collected immediately after harmaline testing
Description: Plasma and brain tissue sample collection (at 90 min post dosing of study compound) was evaluated in […]. N=15 in each group. Plasma and brain tissue samples were collected immediately after harmaline testing. Plasma sample number: 5×15=75. Brain tissue sample number: 5×15=75.

[3] = Part B OLT, Day 7, N = 10, change from pre-dose baseline
[4] = Part B OLT, Day 21, N = 12, change from pre-dose baseline
[5] = Part B OLT, Day 42, 6 hours post-dose, N = 11, change from pre-dose baseline
[6] = Part B RWD, Day 56, study drug group N = 6, change from randomization baseline, last line of the cell group
[7] = Part B RWD, study drug group N = 6, Day 42 post-dose value

CC(C)(C)NC(=O)CN1CCC(CNC(=O)c2cc(F)cc(Cl)c2)CC1.Cl [Study drug]
response (e.g., reduced tremor symptoms) of ET patients ([1]; ET patients who were taking propranolol hydrochloride, phase 2 clinical trial): responded favorably
all TETRAS performance subscale-derived scores after washout ([1]; Part A, Day 21, after a 1-week washout period): returned to near pre-dose baseline levels
mADL (TETRAS modified total score) CTA LS Mean % [1, 3]: −18.49%
mADL (TETRAS modified total score) Score CFB LS Mean [1, 3]: −2.862
TETRAS CULS Score CFB LS Mean [1, 4]: 1.320
mADL (TETRAS modified total score) CTA LS Mean % [1, 4]: −14.31%
mADL (TETRAS modified total score) Score CFB LS Mean [1, 4]: −2.812
mADL (TETRAS modified total score) CTA LS Mean % [1, 5]: −42.04%
mADL (TETRAS modified total score) Score CFB LS Mean [1, 5]: −6.669
TETRAS ADL LS Mean Difference: Study drug - Placebo (95% CI) ([1]; Part B RWD, Day 56): −9.578 (−18.9020, −0.2546)
TETRAS CULS LS Mean Difference: Study drug - Placebo (95% CI) ([1]; Part B RWD, Day 56): −1.896 (−8.7365, 4.9451)
TETRAS PSTS LS Mean Difference: Study drug - Placebo (95% CI) ([1]; Part B RWD, Day 56): −3.025 (−11.2090, 5.1595)
TETRAS ULS LS Mean Difference: Study drug - Placebo (95% CI) ([1]; Part B RWD, Day 56): −0.253 (−4.9188, 4.4129)
mADL LS Mean Difference: Study drug - Placebo (95% CI) ([1]; Part B RWD, Day 56): −8.439 (−15.3856, −1.4916)
mADL (TETRAS modified total score) LS Mean CFB ([1]; Part B RWD, Day 56, study drug group N = 6, change from randomization baseline): 1.350
TETRAS ADL Mean CFB [1, 6]: 5.84
mADL (TETRAS modified total score) Mean CFB [1, 6]: 8.45
mADL LS Mean Difference: Study drug - Placebo (95% CI) ([1]; Part B RWD, Day 56, listed as study drug): −8.439
TETRAS ADL LS Mean Difference: Study drug - Placebo (95% CI) ([1]; Part B RWD, Day 70): −5.988 (−16.8132, 4.8377)
TETRAS CULS LS Mean Difference: Study drug - Placebo (95% CI) ([1]; Part B RWD, Day 70): −0.964 (−6.5938, 4.6660)
TETRAS PSTS LS Mean Difference: Study drug - Placebo (95% CI) ([1]; Part B RWD, Day 70): −1.277 (−7.5286, 4.9741)
TETRAS ULS LS Mean Difference: Study drug - Placebo (95% CI) ([1]; Part B RWD, Day 70): −0.316 (−3.3765, 2.7441)
mADL LS Mean Difference: Study drug - Placebo (95% CI) ([1]; Part B RWD, Day 70): −3.236 (−12.3264, 5.8538)
mADL (TETRAS modified total score) LS Mean CFB ([1]; Part B RWD, Day 70 (follow-up), study drug group N = 6, change from randomization baseline): 4.353
TETRAS ADL Mean CFB ([1]; Part B RWD, Day 70 (follow-up), study drug group N = 6, change from randomization baseline, last line of the cell group): 18.73
TETRAS ADL Randomization Baseline Mean [1, 7]: 22.17
TETRAS CULS Randomization Baseline Mean [1, 7]: 19.33
TETRAS PS Item 6: Archimedes Spiral (Left) Randomization Baseline Mean (SD) [1, 7]: 1.75 (0.524)
TETRAS PS Item 6: Archimedes Spiral (Right) Randomization Baseline Mean (SD) [1, 7]: 1.75 (0.247)
TETRAS PS Item 7: Handwriting Randomization Baseline Mean (SD) [1, 7]: 1.75 (1.405)
TETRAS PSTS Randomization Baseline Mean [1, 7]: 22.83
TETRAS ULS Randomization Baseline Mean [1, 7]: 10.25
mADL (TETRAS modified total score) Randomization Baseline Mean [1, 7]: 12.17
all TETRAS performance subscale-derived, TETRAS ADL-derived, and quality of life measures after washout ([1]; Part B, Day 70, after a 1-week washout period): returned to near pre-dose baseline levels
plasma and brain concentrations [2]: consistent with those measured in previous studies
